Several values for one entry are separate records, joined by “and”; a condition that tells them apart may be missing. Equal entries are not always repeated.
Columns and labels:
[1] = system: Pythium, Phytophthora, Phomopsis and Rhizoctonia fungal pathogens; experiment: Field trial 2003-2005: soybean viability at R8 by seed/foliar treatment; type: in vivo; parameters: viability average: concentration or dose not given beside the values
Excerpt: (§1) Test plots were organized into randomized block design consisting of fifteen (15) total treatments. Treatments included either a control group, a seed treatment, foliar treatment, or a combination seed and foliar treatment. Each treatment consisted of four (4), twenty-five (25) foot rows in each test plot. The fifteen (15) treatment blocks were planted in quadruplicate for a total of sixty (60) test plots. The test plots were labeled with numerical identification markers which represent the treatment, plot, and replication number. No samples were taken from the two (2) interior rows of each plot so that they could be used for counting plant mortality and harvested for seed yields. The two (2) outside rows were used to sample plants.
(§2) Seeds were treated with stock solutions of the following treatments. Carbenoxolone disodium salt 0, 125, 250, 500 and 1000 μg/L High Grade was utilized for management of Pythium, Phytophthora, Phomopsis and Rhizoctonia fungal pathogens. Gustafson's Magnacoat® (Gustafson, LLC, Plans, Tex.) was used as a seed-coating polymer in conjunction with the other treatment and as a control treatment. For example, stock solutions were prepared in 500 mL beakers as follows: […] High Grade was prepared by adding 0.105 g of 99% pure Carbenoxolone to 65 mL deionized water and mixing using a spatula until completely dissolved, then adding 35 mL Magnacoat® and 5 mL green Pro-lzed® colorant and mixing until homogenous for a total of 105 mL.
(§3) Seeds for each row were treated separately with compounds. A 2.1 mL sample was taken from the stock solution via pipette and placed in a 200 mL glass beaker. A single row seed sample was added to the beaker and the seeds were mixed with a glass stir rod until the seeds were completely covered. The samples were then spread onto a wax sheet and allowed to dry for one (1) to two (2) hours. Each treated seed sample was placed in a labeled twenty pound (20 lb), 4×6 inch manila coin envelope.
(§4) Foliar treatments were prepared on site. R1 and R4 Foliar Carbenoxolone 1000μ/mL treatments were prepared by adding 3.785 g Carbenoxolone to 1 gallon of water and mixed until dissolved. The mixture was then sprayed directly onto foliage using specialized CO2 pressurized aerosol spray equipment set at a spray rate of 1 gallon/100 ft for four (4), twenty-five (25) foot rows and two (2) rows wide.
The viability data was obtained by totaling the number of healthy plants within the two (2) yield rows at the end of the growing season when plants reached developmental stage R8 and these totals were averaged and standard deviations calculated for all four (4) repetitions per treatment. […] Viability averages of all treatment repetitions for a growing year, for three (3) years of field-testing are compared in FIG. 7. Viability indicates the number of healthy plants at the end of the growing season. Similar to FIGS. 5 and 6, treatments were either untreated control seed or seeds treated with the polymer in combination with Carbenoxolone. Foliar treatments indicate that the same compound used as a seed treatment was then applied as a foliar spray at a set plant development stage (R1 or R4). Percentage is based on the average number of viable plants counted at R8.

[2] = system: Pythium, Phytophthora, Phomopsis and Rhizoctonia fungal pathogens; experiment: Field trial 2003-2005: soybean post-emergence mortality by seed/foliar treatment; type: in vivo; parameters: concentration or dose not given beside the values
Excerpt: as §1, §2, §3, §4
(§5) Germination data was taken at V1 by counting the emergent plants in the two (2) inner yield rows. Plant counts were used to compare with number of seeds planted to determine pre-emergence mortality due to soil-borne early season disease pressure. At the end of the growing season at developmental stage […] when plants were mature, but before full senescence, dead plants were counted. Plant counts were used to determine mortality data for the season caused by overall disease pressure.
Post-emergence mortality was obtained by totaling the number of dead plants at the end of the growing season as compared to the number of plants that successfully emerged. Plant mortality counts were taken at developmental stage R8, within the two (2) yield rows and an average of these mortality totals was obtained for all four (4) repetitions. Post-emergence mortality averages and standard deviations for all four (4) repetitions and treatments over three (3) years of testing are compared in FIG. 6. Post-emergence mortality indicates the number of plants that died within the growing season after emergence. Similar to FIG. 5, treatments were either untreated control seed or seeds treated with the polymer in combination with Carbenoxolone. Foliar treatments indicate that the same compound used as a seed treatment was then applied as a foliar spray at a set plant development stage (R1 or R4). The percentage is based on the average of V1 emerged viable seedlings counted compared to the R8 viable plants counted.

[3] = system: Pythium, Phytophthora, Phomopsis and Rhizoctonia fungal pathogens; experiment: Field trial 2003-2005: soybean pre-emergence mortality by seed/foliar treatment; type: in vivo; parameters: pre-emergence mortality, average non-emergent seeds: concentration or dose not given beside the values
Excerpt: as §1, §2, §3, §4, §5
In the yield rows, two-hundred and forty (240) seeds were planted per row in the yield rows at the beginning of the growing season, flanked by two (2) rows (two-hundred and forty (240) seeds in each row) for plant sampling. Rows were end trimmed to final twenty-five (25) foot rows with two-hundred (200) seed per row and eight (8) seeds per foot. Mortality data was determined only from the interior yield rows. An average of these pre-emergence mortality totals, (four-hundred (400) seeds in two (2) rows) for all four (4) repetitions was taken to represent pre-emergence mortality. Pre-emergence mortality averages for each treatment with calculated standard deviations are compared in FIG. 5. Pre-emergence mortality indicates the number of plants that died before emergence. Treatments were either untreated control seed or seeds treated with the polymer in combination with Carbenoxolone. Foliar treatments indicate that the same compound used as a seed treatment was then applied as a foliar spray at a set plant development stage (R1 or R4). […]

[4] = system: soil-borne fungal diseases; experiment: 1999 and 2000 foliar treatment field trial: viability and mortality data; type: in vivo, soybean; settings: 1999 foliar treatment
Description: as §4
FIGS. 1 and 3 depict the 1999 and 2000 Foliar Treatment Viability and Mortality Data. In 1999, the Carbenoxolone concentration was varied between 125 and 1000 μg/ml diluted in one gallon of water. The treatment composition was applied to the canopy of plants at various developmental stages (V-2, R-1 and R-6). The foliar application was accomplished using the pressurized boom-spray unit attached to a tractor at reproductive stage V-2 or R-1, or by a backpack spray unit at reproductive stage R-6. The mortality and viability data were collected at developmental stage R-8, usually around week eleven (11) or twelve (12) in the plant's lifecycle. Also shown in FIGS. 1 and 3, the percent mortalities were calculated based on the number of plants that died at twelve (12) weeks of growth as compared to the total number of seeds planted per treatment. The viability percentages as shown in FIGS. 1 and 3 were calculated from the total number of seeds planted per treatment, as compared to the viability data taken at three (3) weeks of growth. The seed germination rate was greater than 99% and was determined prior to planting. […] This appears unchanged from the untreated control, which had similar percentages. […] The Carbenoxolone treatment solution having 125 μg/ml has a mortality percentage of approximately 10.4% compared to a mortality percentage of an uncontrolled of 20%.
The […] foliar treatment using Cabenoxolone also had similar results as in 1999. The mortality percentage of plants treated with a Carbenoxolone solution decreased when compared to an untreated control.

[5] = Field trial 2003-2005: seed yield; type: in vivo, soybean
Excerpt: At the end of the growing seasons, marked by plant senescence, the two (2) interior yield rows were harvested using a Massey-Ferguson two-row experimental test, combined with an onboard computer processor for determining seed weight, seed moisture and collection of samples. Yield data included seed moisture and seed weight, which were used to determine the overall yield for each test plot.
Yield data was obtained from the two (2) yield rows of twenty-five (25) feet using a conversion equation which utilized the fraction of acreage predetermined test weight and adjusted moisture of the seeds harvested. Yield values represent bushels per acre adjusted for moisture and test weight. […] Multiple comparisons were tested at α=0.1. Again as with previous Figures, treatments were either untreated control seed or seeds treated with a seed coating polymer in combination with Carbenoxolone. Foliar treatments indicate that the same compound used as a seed treatment was then applied as a foliar spray at a set plant development stage (R1 or R4).

[6] = system: soil-borne fungal diseases; experiment: 1999/2000 foliar application: mean disease rating and percent mortality; type: in vivo, soybean; settings: dead plants / germinated plants, week 11
Excerpt: Beginning at developmental stage V1, a visual disease rating was employed to determine the overall visual health of the plant based on foliar, pod and stem disease. The foliar disease rating system was based from the Soybean Diseases Atlas by the Southern Soybean Disease Workers (W. J. Walla, ed. 1979, Texas A&M University). A 1-5 rating system was utilized, wherein 1=0%, 2=25%, 3=50%, 4=75%, 5=100% based on leaf area affected by disease symptoms.
FIG. 2 illustrates the 1999 Mean Disease Rating for Each Foliar Application, Percent Mortality and the Statistical Significance as Measured by the Student-Newman-Keuls (“SNK”) Analysis. The disease ratings as shown in FIGS. 2 and 4 are an objective number rating assigned as a percentage of a plot infected having a rating scale of 1=0%, 2=25%, 3=50%, 4=75% and 5=100%. The SNK data comprising letters which are different are statistically significant from other letter assigned data sets, which allows the single year data to show how weather influences the outcome of the treatment. […] The mortality count was taken at week eleven (11) in the 1999 and 2000 growing seasons. As previously stated, the SNK statistical analysis illustrate the statistical significance of the data, wherein means with the same letter are not statistically different. […] Even lower, 1000 μg/ml of Carbenoxolone solution a mortality rate of 22%.

[7] = seed combined with R1 foliar, 2003
[8] = seed combined with R1 foliar, 2004
[9] = seed combined with R1 foliar, 2005
[10] = seed combined with R4 foliar, 2003
[11] = seed combined with R4 foliar, 2004
[12] = seed combined with R4 foliar, 2005
[13] = seed treatment (with polymer), 2003
[14] = seed treatment (with polymer), 2004
[15] = seed treatment (with polymer), 2005
[16] = seed treatment combined with R1 foliar, three years of testing

## CC1(C)[C@@H](OC(=O)CCC(=O)O)CC[C@]2(C)[C@H]3C(=O)C=C4[C@@H]5C[C@@](C)(C(=O)O)CC[C@]5(C)CC[C@@]4(C)[C@]3(C)CC[C@@H]12 [Carbenoxolone, 3β-hydroxy-11-oxoolean-12-en-30-oic acid 3-hemisuccinate disodium]
[1]; R1 foliar only, 2003
  viability average: 77.08%
[1]; R1 foliar only, 2004
  viability average: 63.33%
[1]; R1 foliar only, 2005
  viability average: 77.5%
[1]; R4 foliar only, 2003
  viability average: 69.16%
[1]; R4 foliar only, 2004
  viability average: 60.83%
[1]; R4 foliar only, 2005
  viability average: 76.66%
[1]; seed combined with R1 foliar
  Dunnett's t Test analysis of viability data compared to the untreated control: statistically significant difference
[1]; [7]
  viability average: 74.58%
[1]; [8]
  viability average: 63.75%
[1]; [9]
  viability average: 74.58%
[1]; [10]
  viability average: 69.58%
[1]; [11]
  viability average: 62.08%
[1]; [12]
  viability average: 75.83%
[1]; seed treatment (with polymer), 2003, plants at R8
  viability average: 78.39%
[1]; seed treatment (with polymer), 2004, plants at R8
  viability average: 61.66%
[1]; seed treatment (with polymer), 2005, plants at R8
  viability average: 75.41%
[2]; R1 foliar only, 2003
  post-emergence mortality average: 5.0%
[2]; R1 foliar only, 2004
  post-emergence mortality average: 1.6%
[2]; R1 foliar only, 2005
  post-emergence mortality average: 3.33%
[2]; R4 foliar only, 2003
  post-emergence mortality average: 6.25%
[2]; R4 foliar only, 2004
  post-emergence mortality average: 1.6%
[2]; R4 foliar only, 2005
  post-emergence mortality average: 3.33%
[2]; [7]
  post-emergence mortality average: 5.41% and 5%
[2]; [9]
  post-emergence mortality average: 3.33%
[2]; [11]
  post-emergence mortality average: 2.08%
[2]; [12]
  post-emergence mortality average: 2.5% and 2%
[2]; [13]
  post-emergence mortality average: 5.0%
[2]; [14]
  post-emergence mortality average: 2.08%
[2]; [15]
  post-emergence mortality average: 2.5%
[3]; R1 foliar only (untreated seed), 2003
  pre-emergence mortality, average non-emergent seeds: 27.50%
[3]; R1 foliar only (untreated seed), 2004
  pre-emergence mortality, average non-emergent seeds: 41.25%
[3]; R1 foliar only (untreated seed), 2005
  pre-emergence mortality, average non-emergent seeds: 27.08%
[3]; R4 foliar only (untreated seed), 2003
  pre-emergence mortality, average non-emergent seeds: 35.41%
[3]; R4 foliar only (untreated seed), 2004
  pre-emergence mortality, average non-emergent seeds: 43.75%
[3]; R4 foliar only (untreated seed), 2005
  pre-emergence mortality, average non-emergent seeds: 27.91%
[3]; [7]
  pre-emergence mortality, average non-emergent seeds: 30.0%
[3]; [8]
  pre-emergence mortality, average non-emergent seeds: 41.24%
[3]; [9]
  pre-emergence mortality, average non-emergent seeds: 30.0%
[3]; [10]
  pre-emergence mortality, average non-emergent seeds: 36.66%
[3]; [11]
  pre-emergence mortality, average non-emergent seeds: 42.5%
[3]; [12]
  pre-emergence mortality, average non-emergent seeds: 28.75%
[3]; [13]
  pre-emergence mortality, average non-emergent seeds: 26.25% and 26%
[3]; seed treatment (with polymer), 2003 vs 2004
  average germination higher in 2003 compared to 2004: 17%
[3]; [14]
  pre-emergence mortality, average non-emergent seeds: 43.33% and 43%
[3]; [15]
  pre-emergence mortality, average non-emergent seeds: 29.16% and 29%
[4]; 125 μg/ml
  increase of viability percentage from the untreated control: approximately 10%
  mortality percentage: approximately 10.4%
[4]; 1000 μg/ml, plants dead at 12 weeks vs seeds planted
  mortality rate: approximately 20%
[4]; 1000 μg/ml, viability at 3 weeks vs seeds planted
  viability rate: approximately 80%
[5]; 2003-2005, not statistically significant
  improvement of the average yield: approximately 1.5 bushels/acre
[5]; [16]
  increase of yield: 1.5 bushels per acre
  increase of yield compared to other treatments: 6.9%
[6]; foliar 500 μg/ml
  mortality rate: 26%
[6]; foliar 1000 μg/ml
  mortality rate: 22%
